# Values joined by “and” are separate entries in the source; they are usually repeats but may differ in a detail not shown here. Equal entries are not always repeated.
# Tests used:
# MS2 [1] = conditions: PAA 7-15 mg/l; cited from earlier work
# [2] = Decomposition of 8 spiked micropollutants in secondary waste water by PFA and UV (batch reactor); conditions: total reaction time 15 min
# Experimental: The total reaction time was always kept in 15 min and the treatment temperature was between 10-15° C. The concentrations of each micropollutant were analyzed before and after treatment, and the difference was used to calculate the conversion of each compound. Further, a mean value of the conversions (%) of those 8 compounds was calculated to describe the overall efficiency of the treatment.
# MS2 [3] = assay: Disinfection of MS2-spiked wastewater effluent with PFA, UV and PFA+UV (plaque count); parameters: species or system RNA coliphages (MS2)
# Experimental: Freshly prepared DEX-135® was added to wastewater effluent (500 ml) that was spiked with RNA coliphages (MS2) to contain 38534 PFU/ml MS2 and mixed continuously with a magnetic stirrer.
# UV disinfection using collimator device: The test was done with 50 ml of wastewater effluent The waters were taken in to the cylinders and that was spiked with RNA coliphages (MS2) to contain 38534 PFU/ml MS2 and mixed. 10 ml of this water was taken in to the Petri dishes (diameter 6 cm) and exposed to UV using collimated beam (intensity I0 on the surface of water […]) with continue mixing with magnet stirrer. […]
# Determination of microorganisms: The microbiological analyses were started within a few minutes after disinfection segment of the experiment. MS2 coliphages were determined on phage TYG-agar by basing on old double-agar-layer-method (Adams, 1959), with Escherichia coli ATCC 15597 and 13706, respectively as host bacteria and overnight incubation at 37° C. After incubation, virus plaques were counted and results calculated as PFU/ml (PFU=Plaque Forming Unit) and reduction percentage were also determined. […]
# The synergistic index was calculated by the method presented by F. C. […] Here, the synergistic index was calculated using the following formula: Synergistic index SI=Qa/QA+Qb/QB.
# Synergistic index was calculated for 1 log reduction.
# Enterococci = assay: Disinfection of spiked wastewater effluent with PFA, UV and PFA+UV: Enterococci count; parameters: species or system Enterococcus faecalis; conditions: for PFA in combination with UV (Qa): UV 15 mWs/cm^2; for PFA in combination with UV (Qa) / PFA alone (QA): interpolated
# Experimental: (§1) Since the wastewater effluent might contain less than 100 cfu/ml (10^4 cfu/100 ml) of E. coli and Enterococci these microorganisms were spiked to wastewater so that the numbers of these microorganisms would be at the level of 10^4-10^5 cfu/ml allowing to study better reduction. E. coli ATTC 15597 and Enterococcus faecalis ATCC 29212 were produced in tryptone yeast extract broth as overnight shaker cultures at 37° C. and kept at 4° C. during the experiment. The numbers of E. coli and Enterococci (containing thus both the natural and spiked ones) were enumerated from effluent and effluent after disinfections by using Chromocult agar (Merck) and confirmed by indole production for E. coli and Slanetz-Bartley agar (Labema) for Enterococci incubated at 37° C. for 1 and 2 days, respectively.
# (§2) The enumerations of E. coli and Enterococci were done as for fresh wastewater keeping the mixture at 4° C. for less than 5 hours before starting the analysis.
# (§3) Only UV-irradiation: The spiked wastewater effluent was mixed and treated in a collimator device (UV intensity of 0.22 mW/cm^2 on surface of the solution) to treat UV-irradiations using UV 15 mWs/cm^2 alone, UV 25 mWs/cm^2 alone and UV 50 mWs/cm^2 alone. The enumerations of E. coli and Enterococci were determined as previously.
# (§4) E. coli and Enterococci were analyzed by the spread-plate-technique. E. coli were cultivated on Chromocult agar (Merck, KGaA, Germany) and incubated at 37° C. for 21+3 h (preferring 2 days) and Enterococci on Slanez & Bartley agar (Lab M, IDG plc, Bury, Lancashire, UK) and incubated at 37° C. for 48+3 h. E. coli were confirmed by oxidase. Bacterial numbers were calculated as CFU/ml (CFU=Colony Forming Unit) and reductions were also determined. These bacterial determination methods are describes in ISO-9308-1 (E. coli) and SFS-EN ISO 7899-2 (Enterococci).
# (§5) The graphs of Log reduction vs. dose were made and the values below were interpolated from the linear function of the data points.
# E. coli = assay: Disinfection of spiked wastewater effluent with PFA, UV and PFA+UV: E. coli count; parameters: species or system Escherichia coli; conditions: for PFA in combination with UV (Qa): UV 15 mWs/cm^2; for PFA in combination with UV (Qa) / PFA alone (QA): interpolated
# Experimental: as §1, §2, §3, §4, §5
# [4] = PFA 0.25 mg/l alone, 10 minutes contact
smiles,measurement,setting,value
"CC(=O)OO [PAA, peracetic acid]",log reduction of MS2,MS2 [1],1-1.5
"O=COO [PFA, performic acid]",average conversion (%) of 8 compounds,"[2]; PFA 5 mg/l, UV 0 min",1.66%
same,average conversion (%) of 8 compounds,"[2]; PFA 5 mg/l, UV 1 min",15.27%
same,average conversion (%) of 8 compounds,"[2]; PFA 5 mg/l, UV 5 min",28.53%
same,average conversion (%) of 8 compounds,"[2]; PFA 5 mg/l, UV 15 min",47.86%
same,average conversion (%) of 8 compounds,"[2]; PFA 12.5 mg/l, UV 0 min",5.15%
same,average conversion (%) of 8 compounds,"[2]; PFA 12.5 mg/l, UV 1 min",19.25%
same,average conversion (%) of 8 compounds,"[2]; PFA 12.5 mg/l, UV 5 min",36.25%
same,average conversion (%) of 8 compounds,"[2]; PFA 12.5 mg/l, UV 15 min",54.18%
same,average conversion (%) of 8 compounds,"[2]; PFA 25 mg/l, UV 0 min",8.98%
same,average conversion (%) of 8 compounds,"[2]; PFA 25 mg/l, UV 1 min",16.64%
same,average conversion (%) of 8 compounds,"[2]; PFA 25 mg/l, UV 5 min",41.61%
same,average conversion (%) of 8 compounds,"[2]; PFA 25 mg/l, UV 15 min (88 mJ/cm^2)",66.78%
same,PFA dose for 1 log reduction of MS2,"MS2 [3]; PFA alone, effluent wastewater, 90% (1 log) removal",3.5 mg/l
same,synergy index (SI),"MS2 [3]; UV + PFA, 1 log reduction of MS2",1
same,PFA in combination with UV (Qa),Enterococci; Log reduction 2.5,0.03 mg/L
same,PFA alone (QA),Enterococci; Log reduction 2.5,0.47 mg/L
same,PFA in combination with UV (Qa),Enterococci; Log reduction 3,0.19 mg/L
same,PFA alone (QA),Enterococci; Log reduction 3,0.56 mg/L
same,PFA in combination with UV (Qa),Enterococci; Log reduction 3.5,0.35 mg/L
same,PFA alone (QA),Enterococci; Log reduction 3.5,0.66 mg/L
same,PFA in combination with UV (Qa),Enterococci; Log reduction 4,0.52 mg/L
same,PFA alone (QA),Enterococci; Log reduction 4,0.75 mg/L
same,Log reduction,Enterococci; PFA 0.25 mg/l + UV 15 mWs/cm^2,4.53
same,Log reduction,Enterococci; [4],3.08
same,SI,"E. coli; Log reduction 1.5, PFA 0.06 mg/l + UV 15 mWs/cm^2",0.88
same,PFA in combination with UV (Qa),E. coli; Log reduction 1.5,0.06 mg/L
same,PFA alone (QA),E. coli; Log reduction 1.5,0.33 mg/L
same,SI,"E. coli; Log reduction 2, PFA 0.22 mg/l + UV 15 mWs/cm^2",1 and 1.02
same,PFA in combination with UV (Qa),E. coli; Log reduction 2,0.22 mg/L
same,PFA alone (QA),E. coli; Log reduction 2,0.44 mg/L
same,Log reduction,E. coli; PFA 0.25 mg/l + UV 25 mWs/cm^2,3.52
same,Log reduction,E. coli; [4],1.72
